How the values were obtained:
[1] = test system: WNT7a silenced murine myoblasts (WNT7a-KO); assay: Differentiation of WNT7a-KO versus wild type myoblasts after chemical hypoxia (fusion and differentiation indexes); format: cell-based; settings: WNT7a-KO vs wild type cells, 24 hours inhibitor pre-treatment then 7 days differentiation
Method: After differentiation for 7 days in DM, cells were washed with phosphate saline buffer (PBS) and fixed for 15 minutes in 4% (w/v) paraformaldehyde at room temperature. For permeabilization and blocking, cells were incubated for 1 hour in the presence of PBS 0.1% (v/v) Triton X-100 (TX-100, Merck) and 5% (w/v) FBS (Merck) at room temperature. […] After incubation, cells were washed three times in PBS and incubated for 1 hour at room temperature with an anti-mouse FITC-conjugated secondary antibody (Jackson ImmunoResearch), diluted 1:200. […] Myogenesis was assessed by measuring the myotube area and the number of myonuclei per myotube using a fluorescent microscope (Olympus TH4-200) equipped with an acquisition camera. To quantify both differentiation and fusion indexes, ten fields were chosen randomly and, for each field, a minimum of one hundred myosin-positive myotubes with more than two myonuclei were measured using the ImageJ v1.49o software. The area and the number of nuclei per myotube was the mean of ten measurements averaged from three different experiments.
(§1) Therefore, WNT7a silencing was conducted by Crispr/Cas9 genome editing in C2C12 murine myoblasts and the effects on myogenesis were evaluated.
The knockout of WNT7a gene was obtained performing CRISPR/Cas9 genome editing. In particular, crRNAs and tracrRNA were obtained from TrueGuide™ Synthetic gRNA kit (ThermoFisher Scientific) and they were reconstituted and annealed following the manufacturer's instructions. […] Briefly, they were re-suspended using 1X Tris-EDTA buffer pH 8.0 to prepare a 100 µM stock solution. Then, gRNAs were generated preparing a mix composed of 10 µL crRNA, 10 µL tracrRNA, 10 µL annealing buffer, and 20 µL nuclease-free water. The mixture was incubated at 95 °C for 5 minutes followed by 10 mins on 78 °C, and then 25 °C for 5 minutes.
The transfection was performed seeding 5 x 10^5 murine myoblasts C2C12 in a 24-well plate.
The diluted Lipofectamine ™ CRISPRMAX ™ reagent in Opti-MEM I Medium was incubated 1 minute at room temperature and, then, it was added to gRNA/Opti-MEM I solution for 15 minutes. Then, the mixture was added to murine myoblasts and it was incubated at 37°C for 2 days. After the incubation, single-cell clones were isolated using a limiting dilution cloning in 96-well plates. The efficiency of WNT7a knockout (WNT7a-KO) was verified by sequencing.

MHC = assay: Western blot of MHC in WNT7a-KO versus wild type myoblasts at end of differentiation; format: cell-based, murine; settings: WNT7a-KO vs wild type cells, inhibitor pre-treated
Method: Cells were collected after enzymatic digestion with trypsin (Merck), lysed by sonication and centrifuged at 800 xg for 10 minutes. Supernatant was used to determine total protein content with the BCA Protein Assay Kit (Pierce), according to the manufacturer's instructions.
Proteins were denaturated by boiling for 10 minutes in sample buffer (0.6 g/100 mL Tris, 2 g/100 mL SDS, 10% glycerol, 1% 2-mercaptoethanol, pH 6.8) and loaded into 10% SDS-PAGE gel, then transferred onto a nitrocellulose membrane (Trans-blot, Bio-Rad Laboratories) by electroblotting. Nitrocellulose membranes were incubated with a blocking solution containing 5% (w/v) non-fat dry milk or 5% (w/v) BSA (Merck) in Tris-buffer saline with 0.1% Tween® 20 (TBS-T) for 1 hour. […] Membranes were washed three times for 10 minutes with TBS-T, and then incubated with the appropriate anti-mouse, anti-rabbit, or anti-goat HRP-conjugated secondary antibodies (Dako, Agilent Technologies), 1:2000 dilution, for 1 hour at room temperature. After three washes for 10 minutes with TBS-T, the immunoreactive bands were visualized using the enhanced chemiluminescence detection kit reagents (ECL Advance, GeHealthcare), according to the manufacturer's instructions.
as §1

MyoD = assay: Western blot of MyoD nuclear localization in WNT7a-KO versus wild type myoblasts; format: cell-based, murine; settings: WNT7a-KO vs wild type cells, after 24 h inhibitor pre-treatment
Method: For nuclei separation, 5 x 10^6 cells were collected after enzymatic digestion with trypsin (Merck), centrifuged at the maximum speed, resuspended in 400 µl of Buffer A (10 mM KCl, 0.1 mM EDTA, 1 mM DTT, 10 mM Hepes, pH 7.9), containing protease and phosphatase inhibitors cocktail (Merck), and incubated on ice for 20 minutes. Then, 10% NP40 was added to the cell suspension, mixed for 40 seconds, and centrifuged 40 seconds at the maximum speed. After centrifugation, the pellet was resuspended in 80 µl of Buffer C (0.4M NaCl, 1 mM EDTA, 1 mM DTT, 20 mM Hepes, pH 7.9), containing a protease and phosphatase inhibitors cocktail, and then mixed for 30 minutes at 4°C at the maximum speed. Finally, the nuclear suspension was centrifuged for 5 minutes at 4°C at the maximum speed, collected and transferred in a new tube. The total protein content was determined with the BCA Protein Assay Kit (Pierce), according to the manufacturer's instructions.
Proteins were denaturated by boiling for 10 minutes in sample buffer (0.6 g/100 mL Tris, 2 g/100 mL SDS, 10% glycerol, 1% 2-mercaptoethanol, pH 6.8) and loaded into 10% SDS-PAGE gel, then transferred onto a nitrocellulose membrane (Trans-blot, Bio-Rad Laboratories) by electroblotting. […]
as §1

MYOR = assay: qPCR of MYOR; format: cell-based, murine; settings: IOX2 or FG-4592 treatment, vs controls
Method: Total RNA was isolated using ReliaPrep™ RNA Miniprep Systems (Promega), and reverse transcribed to cDNA using the iScript cDNA synthesis kit (BioRad), according to the Manufacturer's instructions. Real-Time Quantitative PCR was performed on 10 ng of cDNA template, 0.2 µM primers, and GoTaq® qPCR Master Mix (Promega) in 20 µl final volume using a StepOnePlus® Real-Time PCR System (Applied Biosystem). […] RPL13 was used as the housekeeping gene. The amplification program consisted in an initial denaturation at 95°C for 3 minutes, followed by 40 cycles of 5 seconds each at 95°C and 30 seconds at 57°C; WNT7a was amplified at 53°C. Relative quantification of target genes was performed in triplicate and calculated by the equation 2^-ΔΔCt.

Cc1nc(C(=O)NCC(=O)O)c(O)c2ccc(Oc3ccccc3)cc12 [FG-4592, Roxadustat]
decrease in fusion index [1]: 63%
reduction in differentiation index [1]: 15%
decrease of MHC expression (MHC): 36%
decrease of MyoD nuclear localization (MyoD): 42%
MYOR mRNA level down-regulated (MYOR): 2.6 fold

O=C(O)CNC(=O)c1c(O)c2ccccc2n(Cc2ccccc2)c1=O [IOX2]
decrease in fusion index [1]: 67%
reduction in differentiation index [1]: no significant changes
decrease of MHC expression (MHC): 18%
decrease of MyoD nuclear localization (MyoD): no significant changes
MYOR mRNA level down-regulated (MYOR): 2.2 fold
